Legend:
[1] = target: T1, H976Y HDAC4 gain of function mutant (Homo sapiens, UniProt P56524, H976Y); conditions: H976Y mutant compared with HDAC4; cited from earlier work
T1 sequence (P56524 1-1084 H976Y): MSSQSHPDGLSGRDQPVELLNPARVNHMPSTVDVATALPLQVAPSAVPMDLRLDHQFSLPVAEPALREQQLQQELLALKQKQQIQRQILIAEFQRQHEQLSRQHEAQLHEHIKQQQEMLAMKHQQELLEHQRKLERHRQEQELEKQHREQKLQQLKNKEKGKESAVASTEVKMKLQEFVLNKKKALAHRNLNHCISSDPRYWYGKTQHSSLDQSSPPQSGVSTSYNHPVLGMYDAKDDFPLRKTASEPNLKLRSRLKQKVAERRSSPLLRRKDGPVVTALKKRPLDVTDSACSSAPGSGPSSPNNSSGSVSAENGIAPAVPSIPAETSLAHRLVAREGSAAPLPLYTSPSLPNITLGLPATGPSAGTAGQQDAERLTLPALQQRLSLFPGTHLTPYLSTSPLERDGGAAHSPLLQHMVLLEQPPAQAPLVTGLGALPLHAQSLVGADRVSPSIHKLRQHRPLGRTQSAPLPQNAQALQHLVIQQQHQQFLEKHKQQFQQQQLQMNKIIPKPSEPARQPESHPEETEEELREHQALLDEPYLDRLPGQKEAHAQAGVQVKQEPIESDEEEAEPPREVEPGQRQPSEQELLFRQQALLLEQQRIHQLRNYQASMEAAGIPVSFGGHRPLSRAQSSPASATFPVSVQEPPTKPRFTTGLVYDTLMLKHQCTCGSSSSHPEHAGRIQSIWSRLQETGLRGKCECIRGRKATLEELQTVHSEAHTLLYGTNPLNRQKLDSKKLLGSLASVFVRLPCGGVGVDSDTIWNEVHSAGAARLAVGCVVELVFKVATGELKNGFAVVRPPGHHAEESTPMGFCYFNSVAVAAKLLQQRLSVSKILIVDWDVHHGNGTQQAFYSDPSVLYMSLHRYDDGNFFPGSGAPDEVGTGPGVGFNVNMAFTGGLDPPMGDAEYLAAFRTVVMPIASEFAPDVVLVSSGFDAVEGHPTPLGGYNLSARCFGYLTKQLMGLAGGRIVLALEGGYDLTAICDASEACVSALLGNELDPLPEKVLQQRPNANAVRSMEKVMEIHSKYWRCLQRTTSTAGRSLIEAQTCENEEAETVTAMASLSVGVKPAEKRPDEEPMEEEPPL

HDAC1-9 = assay: Biochemical HDAC assay, profiling against HDAC1-9; parameters: species or system human; conditions: dose-response, mean of three replicates
Experimental: The inhibitory effect of compounds on HDAC1-9 function was determined in vitro using an optimized homogenous assay performed in 384-well plate format. […] Reactions are performed in assay buffer (50 mM HEPES, 100 mM KCl, 0.001% Tween-20, 0.05% BSA, 200 μM TCEP, pH 7.4) and followed for fluorigenic release of 7-amino-4-methylcoumarin from substrate upon deacetylase and trypsin enzymatic activity. Fluorescence measurements are obtained approximately every five minutes using a multilabel plate reader and plate-stacker (Envision; Perkin-Elmer). Data are analyzed on a plate-by-plate basis for the linear range of fluorescence over time. The first derivative of data obtained from the plate capture corresponding to the mid-linear range is imported into analytical software and annotated with well identity and compound concentration (Spotfire DecisionSite). Replicate experimental data from incubations with inhibitor are normalized to control, solvent-only wells.
Data are analyzed by logistic regression with determination of IC50 and standard deviation (Spotfire DecisionSite and GraphPad Prism). Calculation of Ki is determined using a derivation of the standard formula Ki=[Inhibitor]/((VON;)*(1+S/Km))−[Substrate]/Km)−1. […]

Sirtuin2 = target: T2, Sirtuin2 (Homo sapiens, UniProt Q8IXJ6); assay: Sirtuin activity assay, Sirtuin2; type: biochemical; conditions: highest testing concentration
T2 sequence (Q8IXJ6 1-389): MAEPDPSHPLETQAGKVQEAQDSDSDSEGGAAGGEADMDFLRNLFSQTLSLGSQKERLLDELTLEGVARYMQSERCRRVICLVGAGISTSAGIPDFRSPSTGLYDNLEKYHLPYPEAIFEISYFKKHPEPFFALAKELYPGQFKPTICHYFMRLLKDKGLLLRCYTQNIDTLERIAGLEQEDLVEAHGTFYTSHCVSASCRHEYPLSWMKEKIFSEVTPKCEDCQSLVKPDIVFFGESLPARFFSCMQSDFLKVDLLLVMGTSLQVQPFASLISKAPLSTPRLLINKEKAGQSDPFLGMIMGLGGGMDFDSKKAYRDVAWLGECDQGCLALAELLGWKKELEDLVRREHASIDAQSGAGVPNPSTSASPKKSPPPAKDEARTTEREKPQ
Experimental: (§1) A series of compound dilutions (10 fold higher than final concentrations) are made in 10% DMSO in HDAC assay buffer. 5 μl of each dilution is added to 50 μl of the reaction mixture so that the final concentration of DMSO is 1% in all of reactions.
(§2) All of the enzymatic reactions were conducted in duplicate at room temperature for 3 hours in a 50 μl mixture containing HDAC assay buffer, 5 μg BSA, 100 μM NAD^+, 10 μM HDAC substrate 1, a sirtuin enzyme, and the test compound.
(§3) After enzymatic reactions, 50 μl of 2×HDAC Developer was added to each well and the plate was incubated at room temperature for an additional 20 minutes. Fluorescence intensity was measured at an excitation of 360 nm and an emission of 460 nm using a BioTek Synergy™ 2 microplate reader.
(§4) Sirtuin activity assays were performed in duplicates at each concentration. The fluorescent intensity data were analyzed using the computer software, Graphpad Prism. […] The percent activity in the presence of each compound was calculated according to the following equation: % activity=(F−Fb)/(Ft−Fb), where F=the fluorescent intensity in the presence of the compound, Fb=the fluorescent intensity in the absence of the sirtuin, and Ft=the fluorescent intensity in the absence of the compound. […]
(§5) If the IC50 value is not available, the % inhibition of the compound at the highest testing concentration was calculated.

Sirtuin3 = target: T3, Sirtuin3 (Homo sapiens, UniProt Q9NTG7); assay: Sirtuin activity assay, Sirtuin3; type: biochemical; conditions: highest testing concentration
T3 sequence (Q9NTG7 1-399): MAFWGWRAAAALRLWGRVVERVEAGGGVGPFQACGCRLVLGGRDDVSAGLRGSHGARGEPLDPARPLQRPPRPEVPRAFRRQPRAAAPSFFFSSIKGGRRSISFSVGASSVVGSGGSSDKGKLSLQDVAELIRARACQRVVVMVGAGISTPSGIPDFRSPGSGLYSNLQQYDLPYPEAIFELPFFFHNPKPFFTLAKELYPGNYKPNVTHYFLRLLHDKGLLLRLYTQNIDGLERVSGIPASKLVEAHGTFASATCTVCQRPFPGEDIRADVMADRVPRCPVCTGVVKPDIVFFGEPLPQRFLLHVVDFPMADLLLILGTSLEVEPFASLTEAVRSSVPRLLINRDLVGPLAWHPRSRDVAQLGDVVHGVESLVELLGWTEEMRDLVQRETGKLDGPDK
Experimental: as §1, §2, §3, §4, §5

In the case of `O=C(/C=C/c1ccc(CN(CCO)CCc2c[nH]c3ccccc23)cc1)NO` [LAQ-824], the “increased affinity for the H976Y HDAC4 gain of function mutant” value [1] is listed as 100 fold.
With `O=C(CCCCCCC(=O)Nc1ccccc1)NO` [SAHA] the “inhibition of HDAC1-9, isoform selectivity profile” value (HDAC1-9) was “unexpected selectivity”.
`O=C(/C=C/c1ccc(C(=O)N/N=C/c2ccc(O)c(O)c2O)cc1)NO` [pandacostat, (E)-N-hydroxy-3-(4-((E)-2-(2,3,4-trihydroxybenzylidene) hydrazinecarbonyl)phenyl) acrylamide] showed an inhibition at 100 µM (Sirtuin2) of roughly 62% and an inhibition at 100 µM (Sirtuin3) of roughly 57%.
In the case of trichostatin A [TSA], the “inhibition of HDAC1-9, isoform selectivity profile” value (HDAC1-9) is reported as “unexpected selectivity”.

Reference: US10059657B2, “Class-and isoform-specific HDAC inhibitors and uses thereof” (priority 2009, dated 2018)
